Here are results for one substance from US6610524B2, “Thermostable phospholipase A1 mutants and a process for preparing the same” (priority 2000, dated 2003).

Type in all cases: biochemical
What all share (details): pH 8.0, 37° C., mean value of 2 experiments

In assay [1] the target is Serratia sp. strain MK1 phospholipase A1 (PLA1), wild-type (naturally occurring; gene SEQ ID NO: 1) (Serratia sp. MK1, UniProt Q9X9D8). The assay is described as follows: kinetic parameters of phospholipase A1 (pH-stat titration of fatty acid released from phosphatidylcholine). Here is the method:
(§1) Catalytic activity of phospholipase A1 was determined using pH-stat titration method. The amount of released fatty acid from enzyme reaction was measured at 37° C. in a pH-stat (Radiometer Copenhagen, France) equipped with autotiter and autoburette. To a substrate solution containing 3.4 mM phosphatidylcholine, 10 mM CaCl2 and 2.6 mM deoxycholic acid, sonicated for emulsification, was added phospholipase A1 enzyme solution and then the amount of released fatty acid was measured. One unit is defined as the amount of enzyme that releases 1μ mole of free fatty acid per minute from phosphatidylcholine at 37° C. and pH 8.0 in a pH-stat.

For assay [2], the target named is Serratia sp. strain MK1 phospholipase A1 mutant TA3 (substitutions at positions 32, 39, 65, 105, 153, 158 and 303 with P, A, L, V, I, I and E); SEQ ID NO: 6; DNA (Serratia sp. MK1, UniProt Q9X9D8, E105V/K303E/M153I/Q32P/S158I/S65L/T39A). The assay is described as follows: kinetic parameters of phospholipase A1 mutant TA3 (pH-stat titration of fatty acid released from phosphatidylcholine).
Chain of Serratia sp. strain MK1 phospholipase A1 mutant TA3 (substitutions at positions 32, 39, 65, 105, 153, 158 and 303 with P, A, L, V, I, I and E); SEQ ID NO: 6; DNA (Q9X9D8 entry or part of it Q32P/T39A/S65L/E105V/M153I/S158I/K303E): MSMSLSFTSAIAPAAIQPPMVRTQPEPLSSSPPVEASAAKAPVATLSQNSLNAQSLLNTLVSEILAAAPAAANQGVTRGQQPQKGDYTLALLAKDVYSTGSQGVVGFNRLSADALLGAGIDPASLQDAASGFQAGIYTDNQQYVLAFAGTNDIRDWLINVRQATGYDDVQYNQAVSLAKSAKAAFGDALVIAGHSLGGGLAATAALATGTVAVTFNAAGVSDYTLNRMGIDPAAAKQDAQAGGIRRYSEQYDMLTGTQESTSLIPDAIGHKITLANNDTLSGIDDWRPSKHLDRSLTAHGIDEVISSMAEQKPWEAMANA
Source text: (§2) The amino acid sequence of TA3 was deduced from the nucleotide sequence of TA3 comprising thermostable phospholipase A1 mutant gene and set forth in SEQ ID NO: 6, and the amino acid sequence of TA13 was deduced from the nucleotide sequence of TA13 and set forth in SEQ ID NO: 7. When the amino acid sequences of thermostable phopholipase mutants, TA3 and TA13 were compared with that of naturally occurring phospholipase A1, TA3 and TA13 were identified as novel proteins with 7 and 6 amino acid substitutions, respectively. Phospholipase TA3 has been identified to have amino acid substitutions at positions of 32, 39, 65, 105, 153, 158 and 303 with P, A, L, V, I, I, and E and phospholipase TA13 has been identified to have amino acid substitutions at positions of 36, 102, 154, 158, 281 and 291 with Q, N, K, W, Q and N, respectively.
as §1

Assay [3] deals with Serratia sp. strain MK1 phospholipase A1 mutant TA13 (substitutions at positions 36, 102, 154, 158, 281 and 291 with Q, N, K, W, Q and N); SEQ ID NO: 7; DNA SEQ (Serratia sp. MK1, UniProt Q9X9D8, E35Q/K290N/L157W/L280Q/M153K/S101N). The experiment in a line: kinetic parameters of phospholipase A1 mutant TA13 (pH-stat titration of fatty acid released from phosphatidylcholine).
Chain of Serratia sp. strain MK1 phospholipase A1 mutant TA13 (substitutions at positions 36, 102, 154, 158, 281 and 291 with Q, N, K, W, Q and N); SEQ ID NO: 7; DNA SEQ (Q9X9D8 entry or part of it E35Q/S101N/M153K/L157W/L280Q/K290N): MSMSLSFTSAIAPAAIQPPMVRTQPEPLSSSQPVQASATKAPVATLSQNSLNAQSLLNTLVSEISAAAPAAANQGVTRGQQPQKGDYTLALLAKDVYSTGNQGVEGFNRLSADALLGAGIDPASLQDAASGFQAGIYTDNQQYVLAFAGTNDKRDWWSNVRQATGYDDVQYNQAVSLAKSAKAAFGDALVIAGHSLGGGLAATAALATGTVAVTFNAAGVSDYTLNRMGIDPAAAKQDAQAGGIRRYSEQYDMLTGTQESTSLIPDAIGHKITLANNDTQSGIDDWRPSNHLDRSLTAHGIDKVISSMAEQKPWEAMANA
Source text: as §2, §1

Chain of Serratia sp. strain MK1 phospholipase A1 (PLA1), wild-type (naturally occurring; gene SEQ ID NO: 1) (Q9X9D8 entry or part of it): as the sequence (Q9X9D8 entry or part of it E35Q/S101N/M153K/L157W/L280Q/K290N) above, with Q35E, N101S, K153M, W157L, Q280L, N290K counted along it

In the case of phosphatidylcholine, in assay [1], the Kcat was 11.23 S^−1, the Kcat/Km stood at 0.093 S^−1 μM and the Km was determined as 114 µM. Also, in assay [2], the Kcat is 10.92 S^−1, the Kcat/Km is recorded as 0.104 S^−1 μM and the Michaelis constant (Km) came to 105 µM. Further, in assay [3], the Kcat came out at 13.67 S^−1, the Kcat/Km was 0.114 S^−1 μM and the Km was 120 µM.

For orientation: Km means the substrate concentration at which the rate is half of its maximum.
